Article PMC6470589, “Contribution of Molecular Structure to Self-Assembling and Biological Properties of Bifunctional Lipid-Like 4-(N-Alkylpyridinium)-1,4-Dihydropyridines” (Pharmaceutics, 2019)
Where two headings read alike, the source gives them in different places.

Legend:
[1] = test system: Bacillus subtilis subsp. spizizenii; test: Toxicity screen, serial dilution-spot test; format: cell-based; conditions: gram positive; 24 h exposure in DI water, 28 °C; 0.0001 = no colonies at 0.001 mM;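 further: last dilution that did not fully inhibit growth with colonies still present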
Method: (§1) An estimation of the toxicity of 4-(N-alkylpyridinium)-1,4-DHP derivatives 3, 6, 7, and 9–11 was performed using six prokaryotic (bacteria) and one eukaryotic (yeast) microorganism species according to the procedure elaborated by Suppi et al.. The microorganisms used in the study and their origin were: Bacillus subtilis subsp. spizizenii (ATCC® 6633™*, Microbiologics®, St Cloud, MN, USA), Escherichia coli (ATCC® 8739, Microbiologics®), Klebsiella pneumoniae (Latvian Microorganisms strain collection, LMKK, strain number 535, Riga, Latvia), Micrococcus luteus (LMKK, No. 25), Pseudomonas aeruginosa (NCTC 12924, Biosciences Ltd., Dublin, Ireland), Proteus mirabilis (LMKK, No 590), and Saccharomyces cerevisiae, CEN.PK2 strain [32].
(§2) Bacteria and yeast cultures were cultivated until their exponential growth phase (optical density max 1); then, 100 µL of cell suspension was taken, washed in deionised (DI) water, and added to serially diluted samples of corresponding 4-(N-alkylpyridinium)-1,4-DHPs in DI water. All 1,4-DHPs were tested in five serially diluted concentrations (10 mM, 1 mM, 0.1 mM, 0.01 mM, and 0.001 mM). Test organisms were exposed to 1,4-DHP derivatives in DI water on 96-well microplates (Corning, Corning, NY, USA) at 28 °C for 24 h without shaking in the dark. Then, a 5 µL sample was taken from each well and spotted on yeast extract, bactopeptone, dextrose broth (YPD) (yeast extract 1%, bactopeptone 2%, glucose 2% and agar 2%) plates to test the growth of yeasts and lysogeny broth (LB) (yeast extract 0.5%, bactopeptone 1%, NaCl 0.5% and agar 2%) to test the growth for bacteria. Plates were left in 30 °C for 24 h, and assessed for microbial growth.
(§3) If there were no colonies after incubation with 1,4-DHPs in the last concentration of (0.001 mM), then their boundary concentration was set to 0.0001 mM or 0.1 µM.

[2] = test system: Escherichia coli; test: Toxicity screen, serial dilution-spot test; format: cell-based; conditions: gram negative; 24 h exposure in DI water, 28 °C; 0.0001 = no colonies at 0.001 mM;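 further: last dilution that did not fully inhibit growth with colonies still present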
Method: as §1, §2, §3

[3] = test system: Klebsiella pneumoniae; test: Toxicity screen, serial dilution-spot test; format: cell-based; conditions: gram negative; 24 h exposure in DI water, 28 °C; 0.0001 = no colonies at 0.001 mM;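 further: last dilution that did not fully inhibit growth with colonies still present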
Method: as §1, §2, §3

[4] = test system: Micrococcus luteus; test: Toxicity screen, serial dilution-spot test; format: cell-based; conditions: gram positive; 24 h exposure in DI water, 28 °C; 0.0001 = no colonies at 0.001 mM;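 further: last dilution that did not fully inhibit growth with colonies still present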
Method: as §1, §2, §3

[5] = test system: Proteus mirabilis; test: Toxicity screen, serial dilution-spot test; format: cell-based; conditions: gram negative; 24 h exposure in DI water, 28 °C; 0.0001 = no colonies at 0.001 mM;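 further: last dilution that did not fully inhibit growth with colonies still present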
Method: as §1, §2, §3

[6] = test system: Pseudomonas aeruginosa; test: Toxicity screen, serial dilution-spot test; format: cell-based; conditions: gram negative; 24 h exposure in DI water, 28 °C; 0.0001 = no colonies at 0.001 mM;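 further: last dilution that did not fully inhibit growth with colonies still present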
Method: as §1, §2, §3

[7] = test system: Saccharomyces cerevisiae, CEN.PK2 strain; test: Toxicity screen, serial dilution-spot test; format: cell-based; conditions: yeast; 24 h exposure in DI water, 28 °C; 0.0001 = no colonies at 0.001 mM;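 further: last dilution that did not fully inhibit growth with colonies still present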
Method: as §1, §2, §3

[8] = Determination of critical aggregation concentration (CAC) by DLS; format: physicochemical; conditions: aqueous media
Method: The critical aggregation concentrations (CAC) of 4-(N-alkylpyridinium)-1,4-DHP derivatives were determined in aqueous media using a Zetasizer Nano S90 (Malvern Panalytical Ltd., Malvern, UK) instrument with Malvern Instruments Ltd. Software according to procedure described by Topel et al. and modified by our group. Briefly, as stock solutions of tested compounds were used, samples were prepared for self-assembling experiments. All of the subsequent samples were prepared starting from the concentrated stock solution, which was subjected to a serial two-fold dilution each time with water. The intensity values of scattered light (kcps) as a function of concentration of amphiphiles were analysed. The scattering intensities detected for amphiphile concentrations below CAC have an approximately constant value corresponding to water. The intensity starts to show a linear increase with concentration at the CAC, since the amount of nanoparticles increases in the solution. The intersection of the best-fit lines drawn through the data points is the preliminary CAC value of the compounds.

[9] = Basal cytotoxicity test (neutral red uptake) with estimation of LD50 from IC50; format: cell-based, mouse; conditions: mouse, NIH 3T3 fibroblast cells
Method: The neutral red uptake (NRU) assay was performed according to the standard protocol of Stokes modified by NICEATM-ECVAM validation study. The NRU cytotoxicity assay procedure was based on the ability of viable cells to incorporate and bind neutral red, which is a supravital dye.
NIH 3T3 (Mouse Swiss Albino embryo fibroblast) cells (9000 cells/well) were placed into 96-well plates for 24 h in DMEM medium containing 5% fetal bovine serum (FBS). Then, they were exposed to the test compound over a range of seven concentrations (1000 μg/mL, 316 μg/mL, 100 μg/mL, 31 μg/mL, 10 μg/mL, 3.0 μg/mL, and 1.0 μg/mL) for 24 h. Untreated cells were used as a control. After 24 h, the medium was removed from all plates. Then, 250 μL of neutral red (NR) solution was added (0.05 mg/mL NR in DMEM 24 h pre-incubated at 37 °C and then filtered before use through a 0.22-µm syringe filter). Plates were incubated for 3 h, and then, cells were washed three times with phosphate buffered saline (PBS). The dye within viable cells was released by extraction with a mixture of acetic acid, ethanol, and water (1:50:49). The absorbance of neutral red was measured using a spectrophotometer multiplate reader Infinite M1000 (Tecan Austria GmbH, Salzburg, Austria) at 540 nm. The optical density (OD) was calculated using the formula: OD (treated cells) × 100/OD (control cells). The IC50 values were calculated using the program Graph Pad Prism® 3.0.
Data from the in vitro tests were used for estimating the starting dose for acute oral systemic toxicity tests in rodent. The in vivo starting dose is an estimated LD50 value that is calculated by inserting the in vitro IC50 value into a regression formula: log LD50 (mM/kg) = 0.439 log IC50 (mM) + 0.621 [29]. The value is recalculated to mg/kg, and compounds are evaluated in accordance with four toxicity categories: category 1: LD50 ≤ 5 mg/kg (highly toxic); category 2: 5 < LD50 ≤ 50 mg/kg (moderately toxic); category 3: 50 < LD50 ≤ 300 mg/kg (slightly toxic); category 4: 300 < LD50 ≤ 2000 mg/kg (practically non-toxic). Using an alternative in vitro method enables comparing the possible toxicity of new compounds and selecting compounds for further study, which will vastly reduce the number of animal experiments.

[10] = category by estimated LD50 (mg/kg), read-out: Toxicity category from estimated LD50

Row | Compound | Boundary concentration, B. subtilis [1] [mM] | Boundary concentration, E. coli [2] [mM] | Boundary concentration, K. pneumoniae [3] [mM] | Boundary concentration, M. luteus [4] [mM] | Boundary concentration, P. mirabilis [5] [mM] | Boundary concentration, P. aeruginosa [6] [mM] | Boundary concentration, S. cerevisiae [7] [mM] | CAC [8] [µM] | LD50 at 24 h [9, 10] [mg/kg] | LD50 at 24 h ([9]; calculated from NIH 3T3 NRU IC50, recalculated to mg/kg, read-out: Basal Cytotoxicity Estimated LD50) [mg/kg]
1 | CCCCCCCCCCCC[n+]1cccc(C2C(C(=O)OCC)=C(C)NC(C)=C2C(=O)OCC)c1 [Compound 3] | 0.01 | 0.01 | 0.1 | 0.001 | 0.001 | 0.01 | 0.001 | 9.3 | – | –
2 | C#CCN1C(C)=C(C(=O)OCC)C(c2ccc[n+](CCCCCCCCCCCC)c2)C(C(=O)OCC)=C1C [Compound 6] | 0.0001 | 0.001 | 0.1 | 0.0001 | 1 | 0.01 | 0.001 | 43.3 | 50 to 300 | –
3 | C#CCOC(=O)C1=C(C)NC(C)=C(C(=O)OCC#C)C1c1ccc[n+](CC)c1 [Compound 7] | 0.1 | 1 | 10 | 0.001 | 0.1 | 0.01 | 1 | – | – | > 2700
4 | C#CCOC(=O)C1=C(C)NC(C)=C(C(=O)OCC#C)C1c1ccc[n+](CCCCCCCCCCCC)c1 [Compound 9] | 0.01 | 0.0001 | 0.1 | 0.0001 | 0.01 | 0.01 | 0.0001 | 9.3 | 50 to 300 | –
